The results in this text go back to ChEMBL document CHEMBL1201862, “PubChem BioAssay data set” (2004).

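A five-concentration, 48-hour dose response in 96-well plates underlies each endpoint, interpolated linearly between surrounding concentrations. Abbreviation: GI50, concentration required for 50% inhibition of growth.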 Calls of active or inactive are those of the source. Cut-off read from the data, not from the text of the source: active = GI50 up to about 1.1 µM and inactive = higher.

What all share (assay): NCI-60 cell line screen, 48 h
Experiment [1] deals with NCI-H460.
Experiment [2] relates to OVCAR-3.
The test system of experiment [3] is KM12.
Experiment [4] relates to SN12C.
The subject of experiment [5] is SK-MEL-28.
Experiment [6] deals with SF-295.
The subject of experiment [7] is OVCAR-8.
For experiment [8], the system named is RXF 393.
For experiment [9], the system named is HCC 2998.
For experiment [10], the system named is HCT-116.
Experiment [11] concerns UACC-62.
The subject of experiment [12] is SNB-75.
Experiment [13] relates to HT-29.
Experiment [14] concerns ACHN.
Experiment [15] has as its system HOP-62.
The test system of experiment [16] is M14.
The test system of experiment [17] is MCF7.
Experiment [18] has as its system HL-60.
The subject of experiment [19] is LOX IMVI.
For experiment [20], the system named is Malme-3M.

With `COc1ccc(N2C(=O)c3c4c(c5c([nH]c6ncccc65)c3C2=O)CCC(C(C)(C)C)C4)cc1` (stereo not given), the GI50 is > 100 µM (inactive) in [1]; > 100 µM (inactive) in experiment [2]; > 100 µM (inactive) in experiment [3]; > 100 µM (inactive) in experiment [4]; > 100 µM (inactive) in experiment [5]; 45.6 µM (inactive) in [6]. Moreover, the GI50 in [7] is > 100 µM (inactive); in experiment [8] it was 34.6 µM (inactive); in experiment [9], > 100 µM (inactive); in [10], > 100 µM (inactive); in experiment [11], 30.3 µM (inactive); in experiment [12] it was 16.8 µM (inactive). Besides, the GI50 in experiment [13] was > 100 µM (inactive); in experiment [14] it was 40.6 µM (inactive); in experiment [15] it was 38.6 µM (inactive); in [16] it was > 100 µM (inactive); in experiment [17], > 100 µM (inactive); in experiment [18] it was > 100 µM (inactive).

Take `O=CC1C(Cl)=Nc2nc3ccccc3n2C1c1ccc([N+](=O)[O-])cc1` (stereo not given): the GI50 in experiment [1] was 31.1 µM (inactive); in experiment [2] it was 3.85 µM (inactive); in [3], 24.8 µM (inactive); in experiment [4], 15.4 µM (inactive); in experiment [5] it was 2.51 µM (inactive); in experiment [6], 23.2 µM (inactive). The GI50 in [7] was 3.95 µM (inactive); in [8], 2.93 µM (inactive); in experiment [9], 14 µM (inactive); in experiment [10], 3.73 µM (inactive); in experiment [11] it was 16.3 µM (inactive); in experiment [12], 1.77 µM (inactive). Moreover, the GI50 in experiment [19] was 2.18 µM (inactive); in experiment [14], 2.43 µM (inactive); in [20], 8.13 µM (inactive); in [15], 8.28 µM (inactive); in [16], 7.93 µM (inactive); in experiment [17] it was 3.97 µM (inactive). The GI50 in experiment [18] was 3.28 µM (inactive).

For `COc1ccc2cc(/C=N\NC(=O)Nc3cccc4ccccc34)ccc2c1`, the GI50 in [1] was 17.9 µM (inactive); in experiment [3], 67 µM (inactive); in experiment [4], 36.6 µM (inactive); in [5], 33 µM (inactive); in experiment [7] it was 24 µM (inactive); in experiment [8] it was 38.5 µM (inactive). For the same compound, the GI50 was > 100 µM (inactive) in experiment [9]; 16.6 µM (inactive) in [10]; 11.1 µM (inactive) in experiment [12]; 33.9 µM (inactive) in experiment [19]; 39.2 µM (inactive) in experiment [13]; 23.9 µM (inactive) in [14]. The GI50 was 97.7 µM (inactive) in experiment [20]; 15.3 µM (inactive) in [15]; 33.4 µM (inactive) in [16]; 20.3 µM (inactive) in experiment [17]; > 10 µM (inactive) in experiment [18].

Take `OC1CSCCSCCCSCCSC1`: the GI50 in experiment [1], in [2], in experiment [4], in experiment [5], in experiment [6] and in experiment [7] was > 100 µM (inactive) throughout. Moreover, the GI50 in [8], in [9], in experiment [10], in experiment [11], in experiment [12] and in [19] was > 100 µM (inactive) in each case. The GI50 in experiment [13] was > 100 µM (inactive); in [14], > 100 µM (inactive); in [15], > 100 µM (inactive); in experiment [16], > 100 µM (inactive); in experiment [17], > 100 µM (inactive); in experiment [18], 50.2 µM (inactive).

Turning to `Nc1c(/N=N/c2ccc(-c3ccc(/N=N/c4c(O)ccc5cc(S(=O)(=O)O)cc(S(=O)(=O)O)c45)cc3)cc2)c(S(=O)(=O)O)cc2cc(S(=O)(=O)O)c(/N=N/c3ccccc3)c(O)c12`, the GI50 was > 100 µM (inactive) in experiment [1]; > 100 µM (inactive) in experiment [2]; > 100 µM (inactive) in [3]; > 100 µM (inactive) in experiment [4]; > 100 µM (inactive) in [5]; > 77.1 µM (inactive) in [6]. In addition, the GI50 was > 100 µM (inactive) in experiment [7]; > 100 µM (inactive) in experiment [8]; > 100 µM (inactive) in experiment [9]; > 100 µM (inactive) in [10]; > 100 µM (inactive) in experiment [11]; 35.7 µM (inactive) in experiment [12]. The GI50 is > 69 µM (inactive) in experiment [19]; > 100 µM (inactive) in [13]; > 100 µM (inactive) in experiment [20]; > 100 µM (inactive) in [15]; > 100 µM (inactive) in [17]; 85.1 µM (inactive) in experiment [18].

Consider `Nc1c2c(=O)[nH]c(=O)c2c(N)c2c(=O)c3ccccc3c(=O)c12`, for which the GI50 in experiment [1] is 0.869 µM (active); in experiment [2], 0.684 µM (active); in experiment [3], 1.83 µM (inactive); in [4], 1.52 µM (inactive); in experiment [5], 2.03 µM (inactive); in experiment [6] it was 1.59 µM (inactive). Besides, the GI50 in experiment [7] was 1.82 µM (inactive); in experiment [8], 3.57 µM (inactive); in experiment [9] it was 4.48 µM (inactive); in experiment [10], 4.6 µM (inactive); in [11], 1.61 µM (inactive); in experiment [19], 1.23 µM (inactive). Moreover, the GI50 was 0.977 µM (active) in [13]; 2.24 µM (inactive) in experiment [14]; 0.222 µM (active) in experiment [20]; 3.13 µM (inactive) in experiment [15]; 0.243 µM (active) in [16]; 1.16 µM (inactive) in experiment [17]. In addition, the GI50 in [18] was 2 µM (inactive).

`O=C(Cc1ccccc1)NN1C(=O)/C(=C\c2ccc(O)cc2)S/C1=N\c1ccccc1`: the GI50 in experiment [1], in [2], in experiment [3], in experiment [4], in experiment [5] and in experiment [6] was > 100 µM (inactive) each time. In addition, the GI50 in [7] is > 100 µM (inactive); in experiment [8] it was > 100 µM (inactive); in experiment [9], > 100 µM (inactive); in experiment [10], > 100 µM (inactive); in [11] it was > 100 µM (inactive); in experiment [12] it was 50.7 µM (inactive). For the same compound, the GI50 in experiment [13] is > 100 µM (inactive); in experiment [14], > 100 µM (inactive); in experiment [15], > 100 µM (inactive); in experiment [16] it was > 100 µM (inactive); in [17], 84.1 µM (inactive); in experiment [18], > 100 µM (inactive).

On to `CC(C(=O)COCc1ccccc1)P1(=O)OC(C)(C)CN1C(C)(C)C` (stereo not given), for which the GI50 in experiment [1], in experiment [2], in [3], in experiment [4], in experiment [6] and in experiment [7] was > 100 µM (inactive) in each case. The GI50 in experiment [8] is > 100 µM (inactive); in [9], > 100 µM (inactive); in experiment [10], > 100 µM (inactive); in experiment [11], > 100 µM (inactive); in [12] it was 54.7 µM (inactive); in experiment [19], > 100 µM (inactive). Also, the GI50 in experiment [13], in [14], in experiment [15], in experiment [16], in experiment [17] and in experiment [18] was > 100 µM (inactive) in each case.

With `O=Cc1cccc2ccc3ccccc3c12`, the GI50 in [1] is 21.4 µM (inactive); in [2], 12.9 µM (inactive); in experiment [3], 4.02 µM (inactive); in [4], 20.5 µM (inactive); in [6], 17.1 µM (inactive); in [7], 24.2 µM (inactive). The GI50 in experiment [8] is 16.3 µM (inactive); in experiment [9] it was 26.2 µM (inactive); in experiment [10] it was 9.18 µM (inactive); in experiment [11] it was 28.1 µM (inactive); in experiment [12] it was 7.35 µM (inactive); in experiment [19], 11.3 µM (inactive). Moreover, the GI50 was 12.2 µM (inactive) in experiment [13]; 13.5 µM (inactive) in experiment [14]; 16.4 µM (inactive) in [20]; 15.9 µM (inactive) in [15]; 20 µM (inactive) in [16]; 14.4 µM (inactive) in [17].

Turning to `O=P(O)(O)CN1CCN(CP(=O)(O)O)CCN(CP(=O)(O)O)CCN(CP(=O)(O)O)CC1`, the GI50 in experiment [1] is 29 µM (inactive); in experiment [2] it was > 100 µM (inactive); in [3] it was 41.8 µM (inactive); in experiment [4], > 100 µM (inactive); in experiment [6], > 100 µM (inactive); in [7] it was 77.6 µM (inactive). Further, the GI50 in experiment [8] is 47.4 µM (inactive); in experiment [9], 88.7 µM (inactive); in [10] it was 36.4 µM (inactive); in [11], 46 µM (inactive); in experiment [12], > 100 µM (inactive); in experiment [19], > 100 µM (inactive). Besides, the GI50 in experiment [13] is 69 µM (inactive); in [14] it was > 100 µM (inactive); in experiment [15], > 100 µM (inactive); in experiment [16], > 100 µM (inactive); in experiment [17] it was 53.6 µM (inactive); in [18] it was 25.4 µM (inactive).

As for `C=CCOCC1C2CCC3(OCCO3)C21` (stereo not given), the GI50 in experiment [1], in experiment [2], in experiment [3], in experiment [4], in experiment [5] and in experiment [6] was > 100 µM (inactive) each time. Also, the GI50 in experiment [7] was > 100 µM (inactive); in experiment [8] it was > 100 µM (inactive); in [9], > 100 µM (inactive); in [10], > 100 µM (inactive); in [11] it was 30.1 µM (inactive); in experiment [12], > 100 µM (inactive). Moreover, the GI50 in [19], in experiment [13], in [14], in experiment [20], in experiment [15] and in [16] was > 100 µM (inactive) in each case. In addition, the GI50 in experiment [17] was > 100 µM (inactive).
